Values of other authors as cited in patent US6719977B1, “Methods to potentiate cancer therapies” (The General Hospital Corporation, priority 1998, dated 2004).

Columns and labels:
[1] = infusion of collagenase
[2] = collagenase treatment
[3] = animal models
[4] = animal models; remark: listed apart in the source
[5] = animal models; remark: listed apart in the source
[6] = infusion of relaxin; fluid-filled subcutaneous balloon
[7] = test system: fibroblast; conditions: a number of experimental settings

collagenase
penetration of small and large molecules into a tumor [1]: dramatically facilitates penetration | hydraulic conductance [2]: increases hydraulic conductance

relaxin
formation of fibrotic capsules surrounding impenetrable foreign bodies [3]: prevent | accumulation of collagen within implanted sponges [4]: prevent | parenchymal fibrosis accompanying oxidative pulmonary damage induced by bleomycin [5]: prevent | resistance to balloon expansion (pressure-volume relationship) [6]: decreased the resistance to balloon expansion

γ-interferon [a pleiotypic cytokine produced by helper T cells]
fibroblast proliferation and associated matrix deposition [7]: inhibit fibroblast proliferation and associated matrix deposition
